Entries after “also recorded” stand apart in the source; their conditions may differ.
Columns and labels:
[1] = system: PI3Kδ signalling in basophils; experiment: Assay 4: Inhibition of PI3Kδ signalling in basophils from human whole blood (anti-FcεR1 induced CD63 expression); details: read-out: EC50, inhibition of anti-FcεR1 mediated CD63 expression
Experimental: PI3Kδ signalling in basophils manifested by an alteration of anti-FcεR1 induced CD63 expression is a useful pharmacodynamic marker determined using the Flow2CAST® kit (Buhlmann Laboratories, Switzerland). Briefly, it involves the following steps: • Mix the anti-coagulated blood sample by inverting the venipuncture tube several times • Prepare fresh and pyrogen-free 3.5 ml polypropylene or polystyrene tubes suitable for Flow Cytometry measurements • Add 49 μl of patient's whole blood to each tube. • Add 1 μl of 10% DMSO (background) or compound (10% DMSO) to the assigned tubes and mix gently. Incubate at room temperature for 15 min • Pipette 50 μl of the Stimulation buffer (background) or anti-FcεRI Ab to each tube • Add 100 μl of Stimulation Buffer to each tube • Mix gently. […] (using an incubator will take about 10 minutes longer incubation time due to less efficient heat transfer) • Add 2 ml pre-warmed (18-28° C.) Lysing Reagent to each tube, mix gently • Incubate for 5-10 minutes at 18-28° C. • Centrifuge the tubes for 5 minutes at 500×g • Decant the supernatant by using blotting paper • Resuspend the cell pellet with 300-800 μl of Wash Buffer • Vortex gently and acquire the data on the flow cytometer within the same day. • Percent CD63 positive cells within the gated basophil population are to be determined in different treatment groups and normalized to vehicle control.

leukemic cells = experiment: Assay 5: Apoptosis in leukemic cell lines (in situ Caspase 3 kit); assay type: cell-based; details: 24 hrs
Experimental: Apoptosis in leukemic cells was determined using an in situ Caspase 3 kit (Millipore, US) as outlined below: • Seed leukemic cells at a density of 1×10^6 cells/well in a 6 well plate • Add test compound/DMSO at desired concentrations • Incubate the plate for 24 hrs at 37° C. in 5% CO2 incubator • Collect cells in a 2 ml centrifuge tube • Add 1.6 μL of freshly prepared 5× FLICA reagent and mix cells by slightly flicking the tubes • Incubate tubes for 1 hour at 37° C. under 5% CO2 • Add 2 ml of 1× wash buffer to each tube and mix • Centrifuge cells at <400×g for 5 minutes at room temperature. • Carefully remove and discard supernatant, and gently vortex cell pellet to disrupt any cell-to-cell clumping. • Resuspend cell pellet in 300 ul of 1× wash buffer • Place 100 μL of each cell suspension into each of two wells of a black microtiter plate. Avoid creation of bubbles. • Read […] of each microwell using an excitation wavelength of 490 nm and an emission wavelength of 520 nm • Percent increase in caspase-3 activity manifested by an increase in fluorescence compared to the control blank is to be calculated.

[2] = Metabolic stability in mouse liver microsomes; assay type: in vitro ADME; details: 1 μM test item, 60 minutes, NADPH
Experimental: (§1) Metabolic stability studies were conducted using mouse, rat, and human liver microsomes. The protocol for the studies with mouse, rat, and human liver microsomes (all from BD Gentest, USA) is provided below. In brief, 0.4 mg protein was preincubated with 2 mM NADPH (cofactor) in phosphate buffer (pH˜7.4) for 15 min at 37° C. and then added with 1 μM test item and incubated further for 60 minutes in triplicate. The reaction mixture was terminated with methanol containing an internal standard and centrifuged further to analyze the test item remaining in the supernatant by LC-MS/MS. The percent parent compound remaining was calculated in comparison with similar samples terminated at 0 minutes.

[3] = system: AML patient bone marrow leukemic cells; experiment: Assay 6-I: Flow cytometry analysis of apoptotic induction in AML patient bone marrow leukemic cells; assay type: cell-based, human
Experimental: 6-I: Flow cytometry analysis of apoptotic induction in AML patient bone marrow leukemic cells upon compound treatment using Annexin V and 7-AAD staining: Mononuclear cells were extracted by the Ficoll method and seeded in plates. The cells were treated by different compounds for 48 hrs before they were analyzed by flow cytometry. After washing with PBS, 1×10^5 cells were stained by Annexin V-APC and 7-AAD. Annexin V positive staining measures total apoptotic cells, including early and late apoptotic cells. For Annexin V positive cells, 7-AAD negative signal reflects early apoptotic cells.

[4] = Metabolic stability in human liver microsomes; assay type: in vitro ADME; details: 1 μM test item, 60 minutes, NADPH
Experimental: as §1

Primary CLL cells = experiment: Assay 8: Screening for anticancer activity in human CLL cells; assay type: cell-based
Experimental: After 72 hours of incubation, CLL cells were evaluated for cytotoxicity using the colorimetric MTS reagent. Phosphorylated Akt (S473) was measured by flow cytometry after one hour of incubation of test compound and ten minutes of incubation with anti-IgM or anti-IgD. Akt phosphorylation was quantified by median fluorescent intensity (MFI). Of the seven CLL patient samples used for experiments, five had mutated IGHV, five had 13 q deletion or normal cytogenetics determined by fluorescent in situ hybridization, three were ZAP-70 negative, and seven were CD38 negative. IgM expression ranged between 13% and 90%, whereas IgD expression was uniformly elevated.

[5] = system: AML patient bone marrow leukemic cells; experiment: Assay 6-III: Cell proliferation analysis of AML patient bone marrow sample (MTS); assay type: cell-based, human
Experimental: 6-III: Cell proliferation analysis of AML patient bone marrow sample using MTS assay: Mononuclear cells were extracted by the Ficoll method and seeded in plates. The cells were treated by different compounds for 48 hrs and 72 hrs before they were analyzed by MTS assay following product instruction. Briefly, 20 μL of the MTS solution was added into each well containing the 100 μL cell suspension, followed by incubation for 4 hours at 37° C., in 95% humidity with presence of 5% CO2. The absorbance of 490 nm (A490) was read using SpectraMAX Plus microplate spectrophotometer.

[6] = system: Human Multiple Myeloma Cells; experiment: Assay 6a: Screening for anticancer activity in human multiple myeloma cells; assay type: cell-based; details: primary multiple myeloma patient cells
Experimental: Samples were taken from two patients with newly diagnosed stage II IgG Kappa and stage III IgG Lambd restricted disease. This screening was performed by inducing apoptosis using doses and times determined from the MTT assay. 1-5×10^5 cells were collected by centrifugation. The cells were re-suspended in 500 μl of 1× Binding Buffer. 5 μl of Annexin V-FITC and 5 μl of propidium iodide were added. The cells were incubated at room temperature for 5 minutes in the dark.
Quantification by flow cytometry: Annexin V-FITC binding was analyzed by flow cytometry (Ex=488 nm; Em=530 nm) using FITC signal detector (usually FL1) and PI staining using a phycoerythrin emission signal detector (usually FL2). The results are shown below and in FIG. 1.

[7] = system: pAKT in AML patient bone marrow leukemic cells; experiment: Assay 6-II: pAKT analysis of AML patient bone marrow sample (pAKT ELISA); assay type: cell-based, human
Experimental: 6-II: pAKT analysis of AML patient bone marrow sample using pAKT ELISA kit: Mononuclear cells were extracted by the Ficoll method and seeded in plates. The cells were treated by different compounds for 48 hrs before they were analyzed by pAKT ELISA kit following the product protocol. Briefly, 1×10^6 cells were transferred into an ELISA kit well and lyzed with 10 μL 5× Cell Lysis Mix (phospho-AKT 1/2/3 (Ser473) InstantOne™ ELISA Kit, eBioscience, 85-86042). The cells were then incubated with 50 μl antibody cocktail for 1 hr at room temp. on a microplate shaker (˜300 rpm). After incubating with detection reagent, the result was measured using a SpectraMAX Plus microplate spectrophotometer set at 450 nm.

[8] = Metabolic stability in rat liver microsomes; assay type: in vitro ADME; details: 1 μM test item, 60 minutes, NADPH
Experimental: as §1

[9] = system: immortalized leukemic cells (B, T, and monocytic cell lines); experiment: Assay 7: Screening for anticancer activity in various leukemic cell lines (MTT); assay type: cell-based; details: majority of B, 72-96 h, read-out: concentration for 50% growth inhibition
Experimental: Proliferation of immortalized leukemic cells representative of various indications was determined by a MTT (3-(4,5-Dimethylthiazol-2-yl)-2,5-diphenyl tetrazolium bromide) assay.

[10] = system: AKT phosphorylation in THP-1, HL-60, MOLT-4, RPMI-8226, or DLBCL cells; experiment: Assay 3: Inhibition of AKT phosphorylation in leukemic cell lines; assay type: cell-based; details: 48 hours, Western Blotting
Experimental: Inhibition of AKT phosphorylation in leukemic cell lines: THP-1, HL-60, MOLT-4, RPMI-8226, or DLBCL cells were incubated with desired concentrations of compound for 48 hours. Cells were lysed and pAKT was determined by Western Blotting. Bands were quantified using ImageJ and normalized to actin.

## CC(C)Oc1ccc(-c2nn([C@@H](C)c3oc4ccc(F)cc4c(=O)c3-c3cccc(F)c3)c3ncnc(N)c23)cc1F [Compound B1, (S)-2-(1-(4-amino-3-(3-fluoro-4-isopropoxyphenyl)-1H-pyrazolo[3,4-d]pyrimidin-1-yl)ethyl)-6-fluoro-3-(3-fluorophenyl)-4H-chromen-4-one]
[1]
  EC50: ≤ 100 nM
Leukemic cells
  Caspase-3 activity: dose-dependently induced Caspase-3 activity
[2]
  Metabolic stability in liver microsomes, Mouse (percent parent compound remaining): 36.6%
[3]
  number of apoptotic cells: concomitant increase in the number of apoptotic cells
[4]
  Metabolic stability in liver microsomes, Human (percent parent compound remaining): 74.9%
Primary CLL cells; 48 hours, 0.1 and 25.6 μM
  apoptosis (caspase-3+/7AAD+): significantly induced apoptosis
Primary CLL cells; 72 hours, 0.1 and 25.6 μM
  cytotoxicity (MTS): significantly induced
Primary CLL cells; one hour compound, anti-IgM or anti-IgD, flow cytometry MFI
  Akt phosphorylation (S473) induced by anti-surface immunoglobulin: significantly abrogated this effect and returned Akt phosphorylation to baseline
[5]
  cell viability / proliferation: dose dependent reduction in proliferation; also recorded: Dose dependent reduction in cell viability
[6]; Homo sapiens, Multiple myeloma cell, 3.0 μM, read-out: inhibition of PAKT
  inhibition at 3 µM: > 75%
[6]
  cell viability: Dose dependent reduction in cell viability.
[7]
  AKT phosphorylation (dose dependence): dose dependent reduction
[7]; Homo sapiens, Bone marrow cell, 0.3 μM, 48 hrs
  inhibition at 0.3 µM: > 50%
[8]
  Metabolic stability in liver microsomes, Rat (percent parent compound remaining): 23.1%
[9]
  IC50: 0.5 to 7.5 µM
[10]
  inhibition at 1 µM: 50 to 90%

From US9150579B2, “Selective PI3K delta inhibitors” (Rhizen Pharmaceuticals SA, priority 2012, dated 2015)
